# Like-named read-outs stand apart in the source and are kept apart here.
# How the values were obtained:
# Human M2 PK = target: T1, Human M2 PK (Homo sapiens, UniProt P14618); experiment: Human PK selectivity, LDH-coupled enzyme assay; format: biochemical; conditions: read-out: % Inhibition Human M2
# T1 construct: used as a template to generate the full-length human M2 PK enzyme; His tag (pET-28a(+) vector) (N); made in house; host or cells: E. coli BL-21 (DE3)
# Text: (§1) Genomic DNA of MRSA strain Sanger 252 extracted using DNeasy Tissue Kit™ (Qiagen™) was used as a template to generate the His-tagged MRSA PK. Human cDNA from MCF-7 breast cancer cell line (courtesy of Dr. J Wong, BC Cancer Research Center (Vancouver, Canada) was used as a template to generate the full-length human M2 PK enzyme. The following primer sets were used creating appropriate restriction sites (NdeI and XhoI sites underlined): For cloning of MRSA PK: M27F 5′-[…]-3′ and M27R 5′-[…]-3′, for cloning of human M2 PK isoform: hM2F 5′-[…]-3′ and hM2R 5′-[…]-3′. The resulting PCR fragments for each construct were cloned into the NdeI and XhoI unique sites of the bacterial expression vector pET-28a (+) (Novagen™). […] The sequence and the correct reading frame of all constructs were verified by sequencing. Human M1, R and L PK constructs in pET-28-a(+) vectors (courtesy of Dr. L. Cantley, Harvard Medical, School (Boston, USA)) were used to generate relevant recombinant His-tagged human PK isoforms.
# (§2) MRSA and human constructs in pET-28a(+) were used to express relevant recombinant PK proteins in E. coli BL-21 (DE3). The proteins were expressed and purified using Ni-NTA agarose (Qiagen™) according to the manufacturer's protocol. Briefly, cells were grown to an absorbance of 0.4-0.5 at 600 nm in 2×YT medium, then induced with 0.1 mM IPTG for 3 h at 20° C. Cells were lysed by sonication on ice (3×10-s bursts with a 30-s recovery between bursts) in lysis buffer (0.2 mg/ml lysozyme, 50 mM Tris pH 7.5, 10 mM MgCl2, 200 mM NaCl, 100 mM KCl, 10% glycerol, 10 mM imidazole, 0.5% NP-40 and 1 mM DTT containing Complete™ protease inhibitor). Cell lysates were cleared by centrifugation (18,000×g in a Beckman™ JA-20 rotor) for 20 min at 4° C. and PK isoforms were purified by batch binding to Ni-NTA resin. The resins were then packed in columns (1×2 cm) and washed with 400 column volumes lysis buffer containing 30 mM imidazole. His-tagged PK isoforms were eluted with the same buffer containing 300 mM imidazole. The proteins were dialyzed overnight at 4° C. against 2000 volumes of ice-cold 30 mM Tris pH 7.5, 25 mM KCl, 5 mM MgCl2, 10% glycerol and 1 mM DTT to remove imidazole. All purification steps were done at 4° C.; enzymes were flash-frozen and stored at −70° C. Enzymatic activity of frozen protein preparations was stable for at least 10 months and up to 5 freeze/thaw cycles. Purity and physical integrity of proteins were assessed using SDS-polyacrylamide gel electrophoresis (SDS-PAGE) followed by coomassie blue staining. Protein concentration was estimated by Bradford assay (Bio-Rad Protein Assay™) using bovine serum albumin as a standard.
# (§3) Candidate MRSA PK inhibitors were assayed for their ability to inhibit enzymatic activities of MRSA and human PKs. PK activity was determined using a continuous assay coupled to lactate dehydrogenase (LDH) in which the change in absorbance at 340 nm owing to oxidation of NADH was measured using a Benchmark Plus™ microplate spectrophotometer (Bio-Rad Laboratories, Hercules, Calif.). […] Reactions were initiated by the addition of 15 nM of one of the PK enzymes. PK activity proportional to the rate of change at 340 nm was expressed as specific activity (μmol/min/mg), which is defined as the amount of PK that catalyzes the formation of one micromole of either product per minute. Inhibitors were dissolved in DMSO with the final concentration of the solvent never exceeding 1% of the assay volume. IC50 values were calculated by curve fitting on a four-parameter dose-response model with variable slope using Graphpad Prism 5.0™ (GraphPad™ Software Inc., La Jolla, Calif.). In all studies, less than 10% of total PEP was exhausted during the reaction. Reactions were performed at 30° C. for up to 5 min. All values determined represent at least two measurements, in triplicate (Tables 1-6) or duplicate unless mentioned otherwise. […]
# Human R PK = target: T2, Human R PK (Homo sapiens, UniProt P30613); experiment: Human PK selectivity, LDH-coupled enzyme assay; format: biochemical; conditions: read-out: % Inhibition Human R
# T2 construct: His tag; made in house; host or cells: E. coli BL-21 (DE3); construct a gift of Dr. L. Cantley
# T2 sequence (P30613 whole entry): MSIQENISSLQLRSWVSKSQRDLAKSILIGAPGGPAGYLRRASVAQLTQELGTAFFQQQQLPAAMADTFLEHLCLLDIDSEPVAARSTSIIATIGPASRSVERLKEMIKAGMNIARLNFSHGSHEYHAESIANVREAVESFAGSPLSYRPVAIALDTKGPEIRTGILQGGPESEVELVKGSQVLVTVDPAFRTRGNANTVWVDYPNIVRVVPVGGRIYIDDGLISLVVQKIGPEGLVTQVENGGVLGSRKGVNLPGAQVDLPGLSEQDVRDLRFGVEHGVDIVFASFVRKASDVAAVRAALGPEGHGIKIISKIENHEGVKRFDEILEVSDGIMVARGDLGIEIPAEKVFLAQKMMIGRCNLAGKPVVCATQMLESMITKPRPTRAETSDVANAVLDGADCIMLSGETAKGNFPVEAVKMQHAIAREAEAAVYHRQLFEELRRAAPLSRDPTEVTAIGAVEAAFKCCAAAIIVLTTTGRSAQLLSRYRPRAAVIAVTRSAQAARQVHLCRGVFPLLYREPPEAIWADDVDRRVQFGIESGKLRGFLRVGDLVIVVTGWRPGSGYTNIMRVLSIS
# Text: as §1, §2, §3
# Human M1 PK = target: T3, Human M1 PK (Homo sapiens, UniProt P14618); experiment: Human PK selectivity, LDH-coupled enzyme assay; format: biochemical; conditions: read-out: % Inhibition Human M1
# T3 construct: His tag; made in house; host or cells: E. coli BL-21 (DE3); construct a gift of Dr. L. Cantley
# T3 sequence (P14618 1-531 isoform P14618-2): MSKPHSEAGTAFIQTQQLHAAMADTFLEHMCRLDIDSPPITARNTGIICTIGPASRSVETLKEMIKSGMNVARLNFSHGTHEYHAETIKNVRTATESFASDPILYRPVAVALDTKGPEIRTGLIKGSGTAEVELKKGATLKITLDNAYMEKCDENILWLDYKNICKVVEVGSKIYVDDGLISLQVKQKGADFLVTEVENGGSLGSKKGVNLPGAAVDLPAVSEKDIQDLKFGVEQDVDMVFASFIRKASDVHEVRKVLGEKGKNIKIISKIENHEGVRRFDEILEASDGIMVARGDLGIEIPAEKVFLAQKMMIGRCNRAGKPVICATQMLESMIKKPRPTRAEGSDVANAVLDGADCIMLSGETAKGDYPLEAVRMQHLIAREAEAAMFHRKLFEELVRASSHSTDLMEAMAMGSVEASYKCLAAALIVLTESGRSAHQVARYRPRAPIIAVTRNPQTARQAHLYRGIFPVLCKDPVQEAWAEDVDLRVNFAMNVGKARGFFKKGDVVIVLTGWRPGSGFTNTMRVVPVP
# Text: as §1, §2, §3
# Human L PK = target: T4, Human L PK (Homo sapiens, UniProt P30613); experiment: Human PK selectivity, LDH-coupled enzyme assay; format: biochemical; conditions: read-out: % Inhibition Human L
# T4 construct: His tag; made in house; host or cells: E. coli BL-21 (DE3); construct a gift of Dr. L. Cantley
# T4 sequence (P30613 1-543 isoform P30613-2): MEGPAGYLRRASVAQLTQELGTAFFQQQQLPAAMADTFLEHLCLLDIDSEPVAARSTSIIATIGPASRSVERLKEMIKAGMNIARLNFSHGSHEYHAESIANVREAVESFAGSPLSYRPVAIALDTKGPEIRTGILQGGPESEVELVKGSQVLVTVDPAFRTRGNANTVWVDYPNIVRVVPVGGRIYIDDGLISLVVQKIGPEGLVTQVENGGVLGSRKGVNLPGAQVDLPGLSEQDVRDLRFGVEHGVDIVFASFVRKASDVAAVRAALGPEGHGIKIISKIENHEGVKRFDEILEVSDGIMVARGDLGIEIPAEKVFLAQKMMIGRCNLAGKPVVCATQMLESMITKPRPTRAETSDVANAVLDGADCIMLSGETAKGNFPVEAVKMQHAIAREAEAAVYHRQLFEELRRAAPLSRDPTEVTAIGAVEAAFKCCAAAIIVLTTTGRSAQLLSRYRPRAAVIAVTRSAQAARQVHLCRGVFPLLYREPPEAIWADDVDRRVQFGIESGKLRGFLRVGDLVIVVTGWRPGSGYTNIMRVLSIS
# Text: as §1, §2, §3
# S. aureus ATCC 29213 = experiment: In vitro susceptibility, broth microdilution MIC; format: cell-based, Staphylococcus aureus; conditions: Staphylococcus aureus
# Summary of the method: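 The MIC against S. aureus 29213 was determined by CLSI 2-fold serial broth microdilution in Mueller Hinton broth. Plates were incubated for 18–24 h at 37 °C and read at OD600 with background subtracted. The MIC was the lowest concentration giving complete growth inhibition versus compound-free wells.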
# [1] = ATCC29213, Tables 1-6 and text, minimum concentration to give >98% inhibition of growth, read-out: MIC
# T1 sequence (P14618 whole entry): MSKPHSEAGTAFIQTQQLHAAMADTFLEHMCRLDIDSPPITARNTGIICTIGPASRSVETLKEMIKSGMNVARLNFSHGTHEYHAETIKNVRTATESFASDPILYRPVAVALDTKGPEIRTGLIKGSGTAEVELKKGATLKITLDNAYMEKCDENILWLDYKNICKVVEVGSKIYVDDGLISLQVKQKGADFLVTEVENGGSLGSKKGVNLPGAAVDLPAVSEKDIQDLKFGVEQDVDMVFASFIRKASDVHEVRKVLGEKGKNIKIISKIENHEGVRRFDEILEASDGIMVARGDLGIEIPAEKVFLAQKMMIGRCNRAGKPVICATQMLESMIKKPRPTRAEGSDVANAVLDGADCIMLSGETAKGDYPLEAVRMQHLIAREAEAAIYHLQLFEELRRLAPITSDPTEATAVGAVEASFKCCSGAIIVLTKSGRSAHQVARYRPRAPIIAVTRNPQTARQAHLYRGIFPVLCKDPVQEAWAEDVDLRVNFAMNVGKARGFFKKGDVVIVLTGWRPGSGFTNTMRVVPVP
SMILES,inhibition at 10 µM (Human M2 PK; at 10 μM) [%],inhibition at 10 µM (Human R PK; at 10 μM) [%],inhibition at 10 µM (Human M1 PK; at 10 μM) [%],inhibition at 10 µM (Human L PK; at 10 μM) [%],MIC (S. aureus ATCC 29213; [1]) [µg/mL],inhibition at 10 µM (Human M2 PK) [%],inhibition at 10 µM (Human R PK) [%],inhibition at 10 µM (Human M1 PK) [%],inhibition at 10 µM (Human L PK) [%],MIC (S. aureus ATCC 29213; ATCC29213) [µg/mL],"MIC (S. aureus ATCC 29213; ATCC29213, S. aureus (ATCC29213), Table 9, read-out: MIC (μg/mL) H) [µg/mL]"
"OCCn1c(-c2cc3ccc(Br)cc3[nH]2)cc2cc(Br)ccc21 [Compound 17, 2-(5,6′-Dibromo-1H, 1′H-[2,2′-biindol]-1-yl)ethanol]",12.1,25.2,14.6,6.8,2,–,–,–,–,–,–
"Brc1ccc2cc(-c3cc4cc(Br)c(Br)cc4[nH]3)[nH]c2c1 [Compound 10k, 5,6,6′-Tribromo-1H,1′H-2,2′-biindole]",20.8,41,16.1,26.8,0.5,–,–,–,–,–,–
"Brc1ccc2cc(-c3nc4ccccc4s3)[nH]c2c1 [Compound 22a, 2-(6-Bromo-1H-indol-2-yl)benzo[d]thiazole]",3,21.6,12.4,7.8,> 64,–,–,–,–,–,–
"Brc1ccc2cc(CCc3cc4ccc(Br)cc4[nH]3)[nH]c2c1 [Compound 28a, 1,2-bis(6-bromo-1H-indol-2-yl)ethane]",1.3,24.1,9.9,9.7,> 64,–,–,–,–,–,–
"Brc1ccc2cc(/C=C/c3cc4ccccc4[nH]3)[nH]c2c1 [Compound 27a, (E)-2-(2-(1H-indol-2-yl)vinyl)-6-bromo-1H-indole]",-0.9,23.8,16.1,12.9,> 64,–,–,–,–,–,–
"Brc1ccc2c(c1)cc(-c1cc3ccc(Br)cc3[nH]1)n2CCN1CCOCC1 [Compound 20b, 4-(2-(5,6′-dibromo-1H,1′H-[2,2′-biindol]-1-yl)ethyl)morpholine]",3.5,50.7,13.1,32.1,> 64,–,–,–,–,–,–
"Brc1ccc2[nH]c(C#Cc3cc4ccc(Br)cc4[nH]3)cc2c1 [Compound 25c, 6-Bromo-2-((5-bromo-1H-indol-2-yl)ethynyl)-1H-indole]",8.7,27.8,19.5,14,16,–,–,–,–,–,–
"Brc1cc2cc(-c3cc4cc(Br)c(Br)cc4[nH]3)[nH]c2cc1Br [Compound 10l, 5,5′,6,6′-Tetrabromo-1H,1′H-2,2′-biindole]",–,–,–,–,–,2.3,20.7,11.1,8.2,> 64,–
"Cn1c(-c2cc3ccc(Br)cc3[nH]2)cc2cc(Br)ccc21 [Compound 12a, 5,6′-Dibromo-1-methyl-1H,1′H-2,2′-biindole]",9.1,2.7,13.9,2.8,> 64,–,–,–,–,–,–
"Brc1ccc2[nH]c(-c3cc4cc(Br)ccc4[nH]3)cc2c1 [Compound 10i, 5,5′-Bibromo-1H,1′H-2,2′-biindole]",0.5,24.4,12.3,9.8,> 64,–,–,–,–,–,–
"Brc1ccc2[nH]c(-c3cc4ccc(Br)cc4[nH]3)cc2c1 [Compound 10c, 5,6-Bibromo-1H,1′H-2,2′-biiindole]",8.7,13.6,6.9,6.1,0.3,–,–,–,–,–,–
"COc1cc(-c2cc3ccccc3[nH]2)ccc1-c1cc2ccc(Br)cc2[nH]1 [Compound 33e, 2-(4-(1H-indol-2-yl)-2-methoxyphenyl)-6-bromo-1H-indole]",14.6,13.5,7.3,4.3,> 64,–,–,–,–,–,–
"O=C(c1c(-c2cc3cc(Cl)ccc3[nH]2)[nH]c2cc(Br)ccc12)C(F)(F)F [Compound 178, 1-(6-bromo-5′-chloro-1H,1′H-[2,2′-biindol]-3-yl)-2,2,2-trifluoroethan-1-one]",–,–,–,–,–,–,–,–,–,–,1
"Brc1ccc2cc(-c3cc4ccc(Br)cc4[nH]3)[nH]c2c1 [Compound 10b, 6,6′-Dibromo-1H,1′H-2,2′-biindole]",0.1,18.3,10.3,7.9,16,–,–,–,–,–,–
"CN1CCN(CCn2c(-c3cc4ccc(Br)cc4[nH]3)cc3cc(Br)ccc32)CC1 [Compound 20a, 5,6′-Dibromo-1-(2-(4-methylpiperazin-1-yl)ethyl)-1H,1′H-2,2′-biindole]",1.7,26.1,3.2,16.8,4,–,–,–,–,–,–
"Brc1ccc2cc(-c3cc4ccccc4o3)[nH]c2c1 [Compound 22b, 2-(Benzofuran-2-yl)-6-bromo-1H-indole]",0.4,-5.5,5.3,-6,> 64,–,–,–,–,–,–
